Source: publication PMC3276110 (ACS Medicinal Chemistry Letters, 2011)

System: multidrug-resistant Dd2 P. falciparum parasites
Experiment: growth inhibition assay
Type: cell-based
Details: Plasmodium falciparum, DD2, 72 h, read-out: Dd2 GI50, Dd2 intraerythrocytic parasites, 72 h, DAPI

C[C@@H]1CN([C@@H](C)CO)C(=O)c2cc(NC(=O)Nc3ccccc3)ccc2O[C@@H](C)CCCCO[C@H]1CN(C)C(=O)OC(C)(C)C [Compound 17]
GI50: > 1400 nM

C[C@@H]1CN(CCO)C(=O)c2cc(NC(=O)Nc3ccccc3)ccc2O[C@@H](C)CCCCO[C@H]1CN(C)S(=O)(=O)c1ccc(F)cc1 [Compound 30]
GI50: 630 nM
